These results are taken from patent US8614327B2 (Vertex Pharmaceuticals Incorporated, priority 2004, dated 2013).

By EC50 is commonly meant the concentration needed to bring the measured effect to its halfway point.

Bounds are passed on as bounds.

The target of the test is T1, ΔF508-CFTR (Homo sapiens, UniProt P13569, DEL508-508).
T1 construct: expressed in transfected cells
The test is described as follows: Membrane potential optical (FRET/VIPR) assay, identification of potentiator compounds. In kind it is cell-based. The settings on record: Table 3, assay not given; for % Activity: relative efficacy. The gist of the method: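 Double-addition potentiator screen: compound delivered in gluconate-substituted Cl^--free medium, membrane potential followed via CC2-DMPE/DiSBAC2(3) FRET on VIPR. Cells were ΔF508-CFTR-expressing NIH3T3 mouse fibroblasts, held 2 h at 37° C. then 24 h at 27° C. before assay.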

T1 sequence (P13569 with tags, fused parts or gaps DEL508-508): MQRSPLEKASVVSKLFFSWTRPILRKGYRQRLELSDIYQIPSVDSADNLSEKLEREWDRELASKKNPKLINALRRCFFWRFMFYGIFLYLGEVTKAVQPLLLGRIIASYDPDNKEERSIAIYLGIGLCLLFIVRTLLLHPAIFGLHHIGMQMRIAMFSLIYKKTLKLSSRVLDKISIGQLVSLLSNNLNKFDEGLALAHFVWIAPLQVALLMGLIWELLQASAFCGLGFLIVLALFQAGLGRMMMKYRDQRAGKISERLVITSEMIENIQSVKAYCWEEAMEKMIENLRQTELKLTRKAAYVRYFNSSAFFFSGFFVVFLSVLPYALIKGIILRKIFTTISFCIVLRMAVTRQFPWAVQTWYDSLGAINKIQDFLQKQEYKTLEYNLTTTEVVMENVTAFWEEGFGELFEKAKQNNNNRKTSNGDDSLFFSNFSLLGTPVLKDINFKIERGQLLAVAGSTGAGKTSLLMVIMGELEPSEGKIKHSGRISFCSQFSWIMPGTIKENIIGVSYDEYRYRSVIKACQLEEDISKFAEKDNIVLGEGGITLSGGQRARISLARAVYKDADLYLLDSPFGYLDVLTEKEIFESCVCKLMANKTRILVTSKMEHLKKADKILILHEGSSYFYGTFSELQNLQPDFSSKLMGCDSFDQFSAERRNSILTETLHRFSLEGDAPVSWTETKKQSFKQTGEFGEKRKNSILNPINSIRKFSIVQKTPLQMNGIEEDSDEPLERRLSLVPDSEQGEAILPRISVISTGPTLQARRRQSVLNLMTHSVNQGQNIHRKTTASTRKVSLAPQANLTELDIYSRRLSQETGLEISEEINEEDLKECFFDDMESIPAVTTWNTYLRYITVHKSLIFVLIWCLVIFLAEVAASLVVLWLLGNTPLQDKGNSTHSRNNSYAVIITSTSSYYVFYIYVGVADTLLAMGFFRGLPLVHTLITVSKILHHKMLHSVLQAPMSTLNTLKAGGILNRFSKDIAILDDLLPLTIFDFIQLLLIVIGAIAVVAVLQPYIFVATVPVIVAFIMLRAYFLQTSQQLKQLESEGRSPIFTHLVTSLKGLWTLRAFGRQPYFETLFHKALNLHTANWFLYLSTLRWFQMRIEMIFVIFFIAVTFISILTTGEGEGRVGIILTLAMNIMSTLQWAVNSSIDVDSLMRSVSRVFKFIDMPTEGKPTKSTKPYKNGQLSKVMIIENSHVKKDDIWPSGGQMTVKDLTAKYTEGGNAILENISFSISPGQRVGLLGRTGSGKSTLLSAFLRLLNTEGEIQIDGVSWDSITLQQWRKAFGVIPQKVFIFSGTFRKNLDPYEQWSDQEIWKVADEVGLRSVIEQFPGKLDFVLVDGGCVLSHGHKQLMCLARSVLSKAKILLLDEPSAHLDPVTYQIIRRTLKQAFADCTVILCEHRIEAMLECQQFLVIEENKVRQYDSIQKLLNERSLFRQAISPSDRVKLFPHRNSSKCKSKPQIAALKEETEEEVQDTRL

Take `CC(C)(C)c1cc(C(C)(C)C)c(NC(=O)c2c[nH]c3ccccc3c2=O)cc1O` [Compound 433, N-(5-hydroxy-2,4-ditert-butyl-phenyl)-4-oxo-1H-quinoline-3-carboxamide]: the EC50 is less than 10 µM. As to `Cc1ccc(C)c(NC(=O)c2c[nH]c3ccccc3c2=O)c1` [Compound 434, N-(2,5-dimethylphenyl)-4-oxo-1H-quinoline-3-carboxamide], the EC50 is less than 10 µM and the “% Activity” value is recorded as “++ (between 25% to 100%)”. On the same counts, the results for `O=C(Nc1cccnc1Oc1ccccc1F)c1c[nH]c2ccccc2c1=O` [Compound 435, N-[2-(2-fluorophenoxy)-3-pyridyl]-4-oxo-1H-quinoline-3-carboxamide] are less than 10 µM and “++ (between 25% to 100%)”. On the same counts, the results for `COc1ccc(-c2ccccc2NC(=O)c2c[nH]c3ccccc3c2=O)cc1OC` [Compound 436, N-[2-(3,4-dimethoxyphenyl)phenyl]-4-oxo-1H-quinoline-3-carboxamide] are less than 10 µM and “++ (between 25% to 100%)”. On to `O=C(Nc1ccc2c(c1)OCO2)c1c[nH]c2ccccc2c1=O` [Compound 437, N-benzo[1,3]dioxol-5-yl-4-oxo-1H-quinoline-3-carboxamide], for which the EC50 was 25 to 60 µM and the “% Activity” value was “+ (<25%)”. For `CC(C)(C)c1cc(C(C)(C)C)c(C(F)F)cc1NC(=O)c1c[nH]c2ccccc2c1=O` [Compound 438, N-[5-(difluoromethyl)-2,4-ditert-butyl-phenyl]-4-oxo-1H-quinoline-3-carboxamide], in that order: less than 10 µM and “++ (between 25% to 100%)”. For `COc1ccc(NC(=O)c2c[nH]c3ccccc3c2=O)cc1` [Compound 439, N-(4-methoxyphenyl)-4-oxo-1H-quinoline-3-carboxamide], in that order: less than 10 µM and “++ (between 25% to 100%)”. For `O=C(Nc1ccc2c(c1)OC(F)(F)C(F)(F)O2)c1c[nH]c2ccccc2c1=O` [Compound 440, N-(2,2,3,3-tetrafluoro-2,3-dihydrobenzo[b][1,4]dioxin-6-yl)-1,4-dihydro-4-oxoquinoline-3-carboxamide], in that order: less than 10 µM and “++ (between 25% to 100%)”. `CS(=O)(=O)Nc1cc(NC(=O)c2c[nH]c3ccccc3c2=O)cc(C(F)(F)F)c1` [Compound 441, N-[3-methylsulfonylamino-5-(trifluoromethyl)phenyl]-4-oxo-1H-quinoline-3-carboxamide]: the “% Activity” value was “++ (between 25% to 100%)”. In the case of `O=C(Nc1cccc(S(=O)(=O)N2CCCCC2)c1)c1c[nH]c2ccccc2c1=O` [Compound 442, 4-oxo-N-[3-(1-piperidylsulfonyl)phenyl]-1H-quinoline-3-carboxamide], the EC50 lay in the range of 25 to 60 µM and the “% Activity” value is “+ (<25%)”. On the same counts, the results for `O=C(Nc1ccc2nccnc2c1)c1c[nH]c2ccccc2c1=O` [Compound 443, 4-oxo-N-quinoxalin-6-yl-1H-quinoline-3-carboxamide] are 25 to 60 µM and “+ (<25%)”.

As for `COC(=O)c1cc(NC(=O)c2c[nH]c3ccccc3c2=O)ccc1C(C)(C)C` [Compound 444, 5-[(4-oxo-1H-quinolin-3-yl)carbonylamino]-2-tert-butyl-benzoic acid methyl ester], the EC50 is less than 10 µM and the “% Activity” value was “++ (between 25% to 100%)”. As to `C=C(C)c1ccccc1NC(=O)c1c[nH]c2ccccc2c1=O` [Compound 445, N-(2-isopropenylphenyl)-4-oxo-1H-quinoline-3-carboxamide], the EC50 was less than 10 µM and the “% Activity” value is reported as “+++ (>100%)”. With `O=C(Nc1ccc2c(c1)S(=O)(=O)C=C2)c1c[nH]c2ccccc2c1=O` [Compound 446, N-(1,1-dioxobenzothiophen-6-yl)-4-oxo-1H-quinoline-3-carboxamide], the EC50 was in the range of 25 to 60 µM and the “% Activity” value is reported as “+ (<25%)”. On the same counts, the results for `N#Cc1cccc(NC(=O)c2c[nH]c3ccccc3c2=O)c1` [Compound 447, N-(3-cyanophenyl)-4-oxo-1H-quinoline-3-carboxamide] are 10 to 25 µM and “++ (between 25% to 100%)”. For `CC(C)(C)c1ccc(NC(=O)c2c[nH]c3ccccc3c2=O)cc1` [Compound 448, 4-oxo-N-(4-tert-butylphenyl)-1H-quinoline-3-carboxamide], in that order: less than 10 µM and “++ (between 25% to 100%)”. On the same counts, the results for `Cc1cccc(NC(=O)c2c[nH]c3ccccc3c2=O)c1` [Compound 449, N-(m-tolyl)-4-oxo-1H-quinoline-3-carboxamide] are less than 10 µM and “++ (between 25% to 100%)”.

Take `CC(O)c1ccc(NC(=O)c2c[nH]c3ccccc3c2=O)cc1` (stereo not drawn) [Compound 450, N-[4-(1-hydroxyethyl)phenyl]-4-oxo-1H-quinoline-3-carboxamide]: the EC50 is 10 to 25 µM and the “% Activity” value was “++ (between 25% to 100%)”. With `CCc1cc(C#N)ccc1NC(=O)c1c[nH]c2ccccc2c1=O` [Compound 451, N-(4-cyano-2-ethyl-phenyl)-4-oxo-1H-quinoline-3-carboxamide], the EC50 was less than 10 µM and the “% Activity” value is given as “++ (between 25% to 100%)”.

On to `C=Cc1ccc(NC(=O)c2c[nH]c3ccccc3c2=O)cc1` [Compound 452, 4-oxo-N-(4-vinylphenyl)-1H-quinoline-3-carboxamide], for which the EC50 was less than 10 µM and the “% Activity” value is “++ (between 25% to 100%)”. For `Nc1cc(NC(=O)c2c[nH]c3ccccc3c2=O)ccc1Cl` [Compound 453, N-(3-amino-4-chloro-phenyl)-4-oxo-1H-quinoline-3-carboxamide], in that order: less than 10 µM and “++ (between 25% to 100%)”. On the same counts, the results for `Cc1ccc(-c2ccccc2)cc1NC(=O)c1c[nH]c2ccccc2c1=O` [Compound 454, N-(2-methyl-5-phenyl-phenyl)-4-oxo-1H-quinoline-3-carboxamide] are 25 to 60 µM and “+ (<25%)”. For `O=C(Nc1ccc(C23CC4CC(CC(C4)C2)C3)cc1)c1c[nH]c2ccccc2c1=O` [Compound 455, N-[4-(1-adamantyl)phenyl]-4-oxo-1H-quinoline-3-carboxamide], in that order: less than 10 µM and “++ (between 25% to 100%)”. Regarding `O=C(Nc1cccc(SC(F)(F)F)c1)c1c[nH]c2ccccc2c1=O` [Compound 456, 4-oxo-N-[3-(trifluoromethylsulfanyl)phenyl]-1H-quinoline-3-carboxamide], the EC50 was less than 10 µM and the “% Activity” value is reported as “++ (between 25% to 100%)”. Regarding `O=C(Nc1ccc(N2CCOCC2)cc1)c1c[nH]c2ccccc2c1=O` [Compound 457, N-(4-morpholinophenyl)-4-oxo-1H-quinoline-3-carboxamide], the EC50 lay in the range of 25 to 60 µM and the “% Activity” value was “+ (<25%)”. For `CC(C)(C)c1ccc(NC(=O)c2c[nH]c3ccccc3c2=O)cc1OCCO` [Compound 458, N-[3-(2-hydroxyethoxy)-4-tert-butyl-phenyl]-4-oxo-1H-quinoline-3-carboxamide], in that order: less than 10 µM and “++ (between 25% to 100%)”. On the same counts, the results for `Cc1ccccc1NC(=O)c1c[nH]c2ccccc2c1=O` [Compound 459, N-(o-tolyl)-4-oxo-1H-quinoline-3-carboxamide] are less than 10 µM and “++ (between 25% to 100%)”. On the same counts, the results for `CCCCOC(=O)NCC(C)(C)c1ccc(NC(=O)c2c[nH]c3ccccc3c2=O)cc1` [Compound 460, [2-methyl-2-[4-[(4-oxo-1H-quinolin-3-yl)carbonylamino]phenyl]-propyl]aminoformic acid butyl ester] are less than 10 µM and “++ (between 25% to 100%)”. For the compound `O=C(Nc1ccccc1-c1ccccc1)c1c[nH]c2ccccc2c1=O` [Compound 461, 4-oxo-N-(2-phenylphenyl)-1H-quinoline-3-carboxamide], the EC50 was less than 10 µM and the “% Activity” value is reported as “++ (between 25% to 100%)”. As for `CCCc1ccc(NC(=O)c2c[nH]c3ccccc3c2=O)cc1N(C)C` [Compound 462, N-(3-dimethylamino-4-propyl-phenyl)-4-oxo-1H-quinoline-3-carboxamide], the “% Activity” value is listed as “++ (between 25% to 100%)”. Still for that read-out and setting: the same measure for `CCc1ccc(NC(=O)c2c[nH]c3ccccc3c2=O)cc1` [Compound 463, N-(4-ethylphenyl)-4-oxo-1H-quinoline-3-carboxamide]: “++ (between 25% to 100%)”. Turning to `CC(C)(C)c1cc(C(C)(C)C)c(NC(=O)c2c[nH]c3cccc(O)c3c2=O)cc1O` [Compound 464, 5-hydroxy-N-(5-hydroxy-2,4-ditert-butyl-phenyl)-4-oxo-1H-quinoline-3-carboxamide], the EC50 is less than 10 µM and the “% Activity” value is reported as “++ (between 25% to 100%)”. For `CC(C)(C)OC(=O)NCc1cc(NC(=O)c2c[nH]c3ccccc3c2=O)ccc1C(C)(C)C` [Compound 465, [5-[(4-oxo-1H-quinolin-3-yl)carbonylamino]-2-tert-butyl-phenyl]methylaminoformic acid tert-butyl ester], in that order: less than 10 µM and “++ (between 25% to 100%)”. In the case of `CC(C)c1cccc(C(C)C)c1NC(=O)c1c[nH]c2ccccc2c1=O` [Compound 466, N-(2,6-diisopropylphenyl)-4-oxo-1H-quinoline-3-carboxamide], the EC50 is less than 10 µM and the “% Activity” value is reported as “++ (between 25% to 100%)”. For `O=C(Nc1ccc2c(c1)CCO2)c1c[nH]c2ccccc2c1=O` [Compound 467, N-(2,3-dihydrobenzofuran-5-yl)-4-oxo-1H-quinoline-3-carboxamide], in that order: 25 to 60 µM and “+ (<25%)”.
